Experiments:
[1] = tested on: HCT-116; assay: HCT-116 cells treated with sulindac sulfide, apoptosis and proliferation; type: cell-based, human; details: 100 μM, 3 days
[2] = tested on: SNAIL; assay: HCT-116 cells treated with sulindac sulfide, SNAIL by RT-PCR; type: cell-based, human; details: 100 μM, 3 days, p=0.007
Protocol: (§1) For chemopreventive studies, we treated the human CRC cell line HCT-116 with sulindac sulfide (100 μM) or vehicle for 3 days and analyzed SNAIL and E-Cadherin by RT-PCR. In order to evaluate frequency of SNAIL overexpression in human colon cancer, we immunohistochemically probed a tissue array using a poly clonal antibody. Finally, to determine whether SNAIL is implicated in E-cadherin donwregulation in CRC, we treated 10 week old male MIN mice with antisense PMO to SNAIL (250 μg/day for 5 weeks) and examined E-cadherin levels in the uninvolved intestine using Western blot analysis.

[3] = tested on: E-Cadherin; assay: HCT-116 cells treated with sulindac sulfide, E-Cadherin by RT-PCR; type: cell-based, human; details: 100 μM, 3 days
Protocol: as §1

[4] = tested on: Apc^Min/+ (MIN) mouse; assay: MIN mouse, antisense SNAIL PMO IP for four weeks, adenomatous polyp / tumor formation; type: in vivo; details: MIN mice, 4 weeks treatment, IP 250 μg per day, five days per week
Text: The Apc^Min/+ (MIN) mouse is a model for colorectal cancer and was used by the inventors to study the effects of antisense SNAIL PMO on the incidence and development of intestinal precancerous lesions (see e.g. Examples 2&3). The MIN mouse has a germ-line mutation in the adenomatous polyposis coli (Apc) gene which leads to familial adenomatous polyposis (FAP). Inactivation of Apc is found in 80% of sporadic human colorectal cancers and in humans with FAP (Kinzler and Vogelstein 1996). The MIN mouse model mimics the rapid development of adenomatous polyps that affect humans with germ-line inactivation of one Apc gene and therefore is a respected model for human colon carcinogenesis.
This observation clearly supports the role of SNAIL in the progression of colon carcinogenesis and as a potent target for anti-carcinogenic therapies.
Ten week-old MIN mice were injected intraperitonealy (IP) with SNAIL PMO (SEQ ID NO: 11) at a dose of 250 μg per day, five days per week for four weeks. Control mice were not injected with any antisense compound and were allowed to develop colon cancers.

[5] = tested on: E-cadherin; assay: MIN mice treated with antisense PMO to SNAIL, E-cadherin in uninvolved intestine by Western blot; type: in vivo, mouse; details: 10 week old male MIN mice, 250 μg/day for 5 weeks, p=0.027
Protocol: as §1

[6] = tested on: APC^MIN mouse; assay: MIN mice, anti-SNAIL PMO daily i.p. 5 weeks, intestinal tumors scored; type: in vivo; details: 200 μg/20 g mouse
Protocol: (§2) Sixteen MIN mice (9-10 week old) were randomized to daily i.p. injections for 5 weeks with either saline or anti-SNAIL phosphorodiamidate morpholino antisense oligomers (PMO; 200 μg/20 g mouse). Animals were given BrdU 2 h prior to sacrifice and intestinal tumors were scored under magnification by observers blinded to treatment group. Immunohistochemical analysis was performed on formalin fixed intestinal segments for proliferation (BrdU labeling), apoptosis (using activated caspase 3) and SNAIL downregulation. The samples were scored by a gastrointestinal pathologist.

[7] = tested on: SNAIL; assay: MIN mice, immunohistochemical analysis of intestinal segments for SNAIL downregulation; type: in vivo; details: daily i.p. 5 weeks, 200 μg/20 g mouse
Protocol: as §2

[8] = tested on: activated caspase 3; assay: MIN mice, immunohistochemical analysis of intestinal segments for apoptosis (activated caspase 3); type: in vivo; details: daily i.p. 5 weeks, 200 μg/20 g mouse, immunohistochemistry, control 1.00 ± 0.74, p < 0.05
Protocol: as §2

[9] = tested on: mucosal proliferation (BrdU labeling); assay: MIN mice, immunohistochemical analysis of intestinal segments for proliferation (BrdU labeling); type: in vivo; details: daily i.p. 5 weeks, 200 μg/20 g mouse, BrdU 2 h prior to sacrifice, control 8.92 ± 8.00, p < 0.05
Protocol: as §2

[10] = tested on: MIN mice; assay: Hair loss (alopecia) in PMO treated MIN mice; type: in vivo, mouse; details: antisense treated MIN mice, Example 3
Text: As described above, SNAIL binds the E-box motifs of E-cadherin, and therefore inhibits E-cadherin expression. E cadherin is required for proper hair follicle cycling (Young, Boussadia et al. 2003). E-cadherin binds with β-catenin altering its location within the cell as well as reducing its availability. Decreasing the level of SNAIL leads to increased E-cadherin which then limits the availability of β-catenin. The decrease in β-catenin leads to an increase in genes in the NF-kappa beta pathway, including Fas and TRAF1. […] Antisense SNAIL PMO administered systemically (e.g. intravenous injection as in Example 3) could cause alopecia through Fas-mediated apoptosis of hair follicle cells or because E cadherin levels have increased sufficiently to cause abnormal hair follicle cycling.
as §2

CSc1ccc(/C=C2/C(C)=C(CC(=O)O)c3cc(F)ccc32)cc1 [sulindac sulfide]
apoptosis [1]: induced apoptosis | proliferation [1]: inhibited proliferation | SNAIL expression (% of vehicle) [2]: 39.2 % of vehicle | E-cadherin expression [3]: induction

SNAIL PMO: phosphorodiamidate morpholino antisense oligomer GGAGCGCGGCATGTTGGCC, target ncts. 8-26 of GenBank M95604 (all phosphorodiamidate morpholino (PMO))
reduction in formation of adenomatous polyps, colon [4]: 44.1% | reduction in formation of adenomatous polyps, proximal bowel [4]: 41.6% | total number of tumors reduced [4]: 21.9% | increase in intestinal E-cadherin protein [5]: 26% | Tumor incidence (%) ([6]; control 25.06 ± 4.10, p < 0.05): 19.57 ± 6.16% | anti-tumorigenic effect (decrease) ([6]; versus saline control): 22% | SNAIL (Arbit. Units) ([7]; immunohistochemistry, control 2.58 ± 0.67, p < 0.05): 2.00 ± 0.58 Arbit. Units | suppression of SNAIL protein expression ([7]; versus saline control): 23% | Cleaved Caspase-3 (Arbit. Units) [8]: 1.50 ± 0.65 Arbit. Units | BrdU Positive (% Total) [9]: 3.43 ± 3.80 % Total | hair loss (alopecia) [10]: pronounced hair loss (alopecia) | hair loss (alopecia) ([10]; listed as Antisense SNAIL PMO): induce alopecia

Source: patent publication US7402574B2, “Antisense composition and method for treating cancer” (AVI BioPharma, Inc., priority 2004, dated 2008)
